Patent publication US8569295B2, “Bicyclic urea compounds” (Merck Patent GmbH, priority 2009, dated 2013)

Target: T1, GST-Aurora A (Homo sapiens, UniProt O14965)
T1 construct: N-terminal GST fusion with full length Aurora A (1-403 amino acids); purchased Carna Biosciences 05-101
T1 sequence (O14965 1-403): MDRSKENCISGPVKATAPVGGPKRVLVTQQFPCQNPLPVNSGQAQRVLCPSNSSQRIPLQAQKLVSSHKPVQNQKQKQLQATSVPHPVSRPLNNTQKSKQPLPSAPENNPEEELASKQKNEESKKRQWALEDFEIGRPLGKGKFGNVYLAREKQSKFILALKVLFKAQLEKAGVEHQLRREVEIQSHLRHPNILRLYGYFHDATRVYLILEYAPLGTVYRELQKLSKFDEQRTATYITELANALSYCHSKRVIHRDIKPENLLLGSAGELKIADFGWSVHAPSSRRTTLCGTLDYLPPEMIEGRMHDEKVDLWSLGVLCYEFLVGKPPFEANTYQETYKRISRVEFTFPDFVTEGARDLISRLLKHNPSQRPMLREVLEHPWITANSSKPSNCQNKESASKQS
Assay: Aurora A kinase biochemical mobility shift assay (Caliper LC3000 / Desktop Profiler)
Settings: AK A (Aurora kinase A) inhibition
Experimental: The Aurora assays described here are performed on two Caliper Life Sciences systems: the LC3000 and the Desktop Profiler. The RON kinase assays are performed on the Desktop Profiler only. These provide data on enzyme activity via measurement of the relative amounts of phosphorylated or unphosphorylated fluorescently labelled substrate peptide at the end of an enzymatic reaction. These different states of peptide are resolved by applying a potential difference across the sample. The presence of the charged phosphate group on the product (as opposed to the substrate) causes a different peptide mobility between the two peptides. This is visualized by excitation of the fluorescent label on the substrate and product peptides and represented as peaks within the analysis software.
In order to measure inhibitor activity of Aurora A inhibitors in the Caliper Life Sciences LC3000, a TTP Mosquito liquid handling instrument is used to place 0.25 ul of the appropriate concentration of inhibitor in 100% DMSO (for a dose response curve calculation) into each well of a 384-well plate. To this reaction components are added to a final volume of 25 ul: • 0.067 ng/ul GST-Aurora A (Carna Biosciences 05-101. N-terminal GST fusion with full length Aurora A (1-403 amino acids), accession number NP_940835.1). • 15 uM ATP (Fluka, 02055) • 1 mM DTT (Sigma, D0632) • 1 mM MgCl2 (Sigma, M1028) • 1 uM substrate peptide (sequence FITC-LRRASLG-(CONH2), synthesized by Tufts Peptide Synthesis service. • 100 mM HEPES pH 7.5 (Calbiochem, 391338) • 0.015% Brij-35 (Sigma, B4184)
The reaction is incubated for 90 min at 25 C, and then stopped by the addition of 70 ul of Stop buffer (100 mM HEPES pH 7.5, 0.015% Brij-35, 10 mM EDTA (Sigma, E7889)).
The plate is read on a Caliper LC3000 in an Off-Chip mobility shift assay format, using the following parameters for a 12-sipper chip: screening pressure −1.8 psi, upstream voltage −2700, downstream voltage −1000. These conditions cause unphosphorylated substrate and phosphorylated product peptide to resolve as separate peaks allowing direct measurement of percentage of conversion of substrate to product. The percent conversion can be plotted against concentration of inhibitor to produce a sigmoidal dose response curve, from which an IC50 can be calculated using XLFit for Microsoft Excel.
The Desktop Profiler utilizes the same priniciple as the LC3000 for calculating percentage conversion of a substrate to product. Caliper Life Sciences provides proprietary flash frozen pre-made 384 well plates containing selected kinases. Each column in the 384 well plate contains a particular selected kinase. A second plate, the ‘substrate plate’ contains a mix of fluorescently labeled peptide substrate and ATP. These are arranged in columns so that transfer for substrate plate to enzyme plate provides the correct enzyme with the correct substrate/ATP concentration. Compounds are added to a thawed enzyme plate in the desired format, in single concentrations. Reactions are initiated by transfer of the substrate/ATP mix from the substrate plate. The enzyme plate is incubated for 90 minutes at 25 C. The reaction is stopped by addition of 70 ul of Stop Buffer (100 mM HEPES pH 7.5, 0.015% Brij-35, 10 mM EDTA (Sigma, E7889)).
Reading of the plate in the Profiler is identical to the LC3000, and the ratio between substrate and product peaks provides the activity of the enzyme in that well. This is best represented by a plate heat map which colors each well by percent inhibition as compared to positive and negative controls (no inhibitors and no ATP respectively).

Row | Compound | IC50 [nM]
1 | O=C(Nc1ccc(Nc2ccnc3c2CN(CCO)C(=O)N3)cc1)c1ccc(F)cc1C(F)(F)F [Example 30, 4-fluoro-N-(4-(3-(2-hydroxyethyl)-2-oxo-1,2,3,4-tetrahydropyrido [2,3-d]pyrimidin-5-ylamino)phenyl)-2-(trifluoromethyl) benzamide] | 10 to 100
2 | COc1ccc(CN2Cc3c(Nc4ccc(NC(=O)c5ccccc5F)cc4F)ccnc3NC2=O)cc1 [Example 114, 2-fluoro-N-(3-fluoro-4-{[3-(4-methoxybenzyl)-2-oxo-1,2,3,4-tetrahydropyrido[2,3-d]pyrimidin-5-yl]amino}phenyl)benzamide] | 100 to 1000
3 | O=C(Nc1ccc(Nc2ccnc3c2CN(CC(F)(F)F)C(=O)N3)cc1)c1ccc(F)cc1C(F)(F)F [Example 38, 4-fluoro-N-(4-(2-oxo-3-(2,2,2-trifluoroethyl)-1,2,3,4-tetrahydropyrido [2,3-d]pyrimidin-5-ylamino)phenyl)-2-(trifluoromethyl) benzamide] | 10 to 100
4 | O=C1NCc2c(Nc3ccc(NC(=O)c4cccc(F)c4)cc3F)ccnc2N1 [Example 117, 3-fluoro-N-{3-fluoro-4-[(2-oxo-1,2,3,4-tetrahydropyrido[2,3-d]pyrimidin-5-yl)amino]phenyl}benzamide] | 10 to 100
5 | O=C1NCc2c(Nc3ccc(NC(=O)c4ccccc4F)cc3F)ccnc2N1 [Example 118, 2-fluoro-N-{3-fluoro-4-[(2-oxo-1,2,3,4-tetrahydropyrido[2,3-d]pyrimidin-5-yl)amino]phenyl}benzamide] | 10 to 100
6 | O=C(CC1CC1)Nc1ccc(Nc2ccnc3c2CNC(=O)N3)cc1 [Example 108, 2-cyclopropyl-N-{4-[(2-oxo-1,2,3,4-tetrahydropyrido[2,3-d]pyrimidin-5-yl)amino]phenyl}acetamide] | 10 to 100
7 | CN1Cc2c(Nc3ccc(NC(=O)c4cccc(F)c4F)c(F)c3)ccnc2NC1=O [Example 39, 2,3-difluoro-N-(2-fluoro-4-(3-methyl-2-oxo-1,2,3,4-tetrahydropyrido [2,3-d]pyrimidin-5-ylamino)phenyl) benzamide] | 10 to 100
8 | O=C(Nc1ccc(Nc2ccnc3c2CN(CC(F)(F)F)C(=O)N3)c(F)c1)c1ccc(F)cc1C(F)(F)F [Example 40, 4-fluoro-N-(3-fluoro-4-(2-oxo-3-(2,2,2-trifluoroethyl)-1,2,3,4-tetrahydropyrido[2,3-d]pyrimidin-5-ylamino)phenyl)-2-(trifluoromethyl) benzamide] | < 10
9 | O=C(Nc1ccc(Nc2ccnc3c2CN(c2ccc(CN4CCCC4)cc2)C(=O)N3)cc1)c1ccccc1 [Example 9, N-(4-(2-oxo-3-(4-(pyrrolidin-1-ylmethyl)phenyl)-1,2,3,4-tetrahydropyrido[2,3-d]pyrimidin-5-ylamino)phenyl)benzamide] | 100 to 1000
10 | CN1Cc2c(Nc3ccc(NC(=O)c4cccc(F)c4)cc3F)ccnc2NC1=O [Example 20, 3-fluoro-N-(3-fluoro-4-(3-methyl-2-oxo-1,2,3,4-tetrahydropyrido [2,3-d]pyrimidin-5-ylamino)phenyl) benzamide] | < 10
11 | O=C(CC(F)(F)F)Nc1ccc(Nc2ccnc3c2CNC(=O)N3)cc1 [Example 107, 3,3,3-trifluoro-N-{4-[(2-oxo-1,2,3,4-tetrahydropyrido[2,3-d]pyrimidin-5-yl)amino]phenyl}propanamide] | 100 to 1000
12 | O=C(Nc1ccc(Nc2ccnc3c2CNC(=O)N3)cc1)Nc1ccc(F)cc1C(F)(F)F [Example 121, N-[4-fluoro-2-(trifluoromethyl)phenyl]-N′-{4-[(2-oxo-1,2,3,4-tetrahydropyrido[2,3-d]pyrimidin-5-yl)amino]phenyl}urea] | 10 to 100
13 | COc1ccc(CN2Cc3c(Nc4ccc(NC(=O)c5ccc(F)cc5C(F)(F)F)cc4)ccnc3NC2=O)cc1 [Example 5, 4-fluoro-N-(4-(3-(4-methoxybenzyl)-2-oxo-1,2,3,4-tetrahydropyrido [2,3-d]pyrimidin-5-ylamino)phenyl)-2-(trifluoromethyl) benzamide] | 100 to 1000
14 | CN(C)CCN1Cc2c(Nc3ccc(NC(=O)c4ccc(F)cc4C(F)(F)F)cc3)ccnc2NC1=O [Example 11, N-(4-(3-(2-(dimethylamino)ethyl)-2-oxo-1,2,3,4-tetrahydropyrido [2,3-d]pyrimidin-5-ylamino)phenyl)-4-fluoro-2-(trifluoromethyl) benzamide] | 100 to 1000
15 | CN1Cc2c(Nc3ccc(NC(=O)CC4CC4)cc3)ccnc2NC1=O [Example 23, 2-cyclopropyl-N-(4-(3-methyl-2-oxo-1,2,3,4-tetrahydropyrido [2,3-d]pyrimidin-5-ylamino)phenyl) acetamide] | 100 to 1000
16 | O=C(Nc1ccc(Nc2ccnc3c2CN(c2ccc(CN4CCCC4)cc2)C(=O)N3)cc1)c1ccc(F)cc1C(F)(F)F [Example 8, 4-fluoro-N-(4-(2-oxo-3-(4-(pyrrolidin-1-ylmethyl)phenyI)-1,2,3,4-tetrahydropyrido[2,3-d]pyrimidin-5-ylamino)phenyl)-2-(trifluoromethyl)benzamide] | 100 to 1000
17 | O=C(Nc1ccc(Nc2ccnc3c2CN(C2CC2)C(=O)N3)cc1)c1ccc(F)cc1C(F)(F)F [Example 15, N-(4-(3-cyclopropyl-2-oxo-1,2,3,4-tetrahydropyrido [2,3-d]pyrimidin-5-ylamino)phenyl)-4-fluoro-2-(trifluoromethyl) benzamide] | 10 to 100
18 | COc1ccc(CN2Cc3c(-c4ccc(C(=O)NCc5ccc(F)c(OC)c5)s4)ccnc3NC2=O)cc1 [Example 129, N-(4-fluoro-3-methoxybenzyl)-5-[3-(4-methoxybenzyl)-2-oxo-1,2,3,4-tetrahydropyrido[2,3-d]pyrimidin-5-yl]thiophene-2-carboxamide] | 10 to 100
19 | CN1Cc2c(Nc3ccc(NC(=O)c4ccccc4)cc3)ccnc2NC1=O [Example 22, N-(4-(3-methyl-2-oxo-1,2,3,4-tetrahydropyrido [2,3-d]pyrimidin-5-ylamino)phenyl) benzamide] | 10 to 100
20 | O=C1NCc2c(Nc3ccc(NC(=O)c4ccccc4)cc3)ccnc2N1 [Example 4, N-(4-(2-oxo-1,2,3,4-tetrahydropyrido [2,3-d]pyrimidin-5-ylamino)phenyl)benzamide] | 10 to 100
21 | CN1Cc2c(Nc3ccc(NC(=O)c4ccc(F)cc4C(F)(F)F)cc3F)ccnc2NC1=O [Example 28, 4-fluoro-N-(3-fluoro-4-(3-methyl-2-oxo-1,2,3,4-tetrahydropyrido [2,3-d]pyrimidin-5-ylamino)phenyl)-2-(trifluoromethyl) benzamide] | < 10
22 | O=C1NCc2c(Nc3ccc(NC(=O)c4ccc(F)cc4C(F)(F)F)cc3F)ccnc2N1 [Example 116, 4-fluoro-N-{3-fluoro-4-[(2-oxo-1,2,3,4-tetrahydropyrido[2,3-d]pyrimidin-5-yl)amino]phenyl}-2-(trifluoromethyl)benzamide] | < 10
23 | O=C(Nc1ccc(Nc2ccnc3c2CN(CCCN2CCCC2=O)C(=O)N3)cc1)c1ccc(F)cc1C(F)(F)F [Example 31, 4-fluoro-N-(4-(2-oxo-3-(3-(2-oxopyrrolidin-1-yl)propyl)-1,2,3,4-tetrahydropyrido [2,3-d]pyrimidin-5-ylamino)phenyl)-2-(trifluoromethyl) benzamide] | 10 to 100
